Assays:
Format in all cases: ADME, cell-based
Caco-2 [1] = test: Drug level in Caco-2 cells assessed as intracellular accumulation at 50 uM after 60 mins; details: human, caco-2, 1 h
[2] = Drug level in Caco-2 cells assessed as total recovery rate at 50 uM after 60 mins; details: human, read-out: Drug uptake
[3] = Apparent permeability from basolateral to apical side of human Caco-2 cells at 50 uM after 90 mins
Caco-2 [4] = test: Drug level in Caco-2 cells assessed as intracellular accumulation at 50 uM after 120 mins; details: human, caco-2, 2 h
Caco-2 [5] = test: Drug level in Caco-2 cells assessed as intracellular accumulation at 50 uM after 30 mins; details: human, caco-2, 0.5 h
Caco-2 [6] = test: Ratio of permeability from basolateral to apical side over apical to basolateral side of human Caco-2 cells at 50 uM; details: caco-2, 50 µM
[7] = Apparent permeability from basolateral to apical side of human Caco-2 cells at 50 uM in presence of iodoacetamide; details: Caco-2, with iodoacetamide (concentration not stated)
[8] = Apparent permeability from basolateral to apical side of human Caco-2 cells at 30 uM after 90 mins
[9] = Apparent permeability from apical to basolateral side of human Caco-2 cells at 50 uM in presence of iodoacetamide; details: Caco-2, with iodoacetamide (concentration not stated)
Caco-2 [10] = test: Drug level in Caco-2 cells assessed as intracellular accumulation at 50 uM after 150 mins; details: human, caco-2, 2.5 h
[11] = Apparent permeability from apical to basolateral side of human Caco-2 cells at 100 uM after 90 mins
[12] = Drug level in Caco-2 cells assessed as total recovery rate at 50 uM after 120 mins; details: human, read-out: Drug uptake
Caco-2 [13] = test: Ratio of permeability from basolateral to apical side over apical to basolateral side of human Caco-2 cells at 100 uM; details: caco-2, 100 µM
[14] = Apparent permeability from apical to basolateral side of human Caco-2 cells at 30 uM after 90 mins
[15] = Drug level in Caco-2 cells assessed as total recovery rate at 50 uM after 150 mins; details: human, read-out: Drug uptake
Caco-2 [16] = test: Ratio of permeability from basolateral to apical side over apical to basolateral side of human Caco-2 cells at 30 uM; details: caco-2, 30 µM
Caco-2 [17] = test: Drug level in Caco-2 cells assessed as intracellular accumulation at 50 uM after 90 mins; details: human, caco-2, 1.5 h
Caco-2 [18] = test: Drug level in Caco-2 cells assessed as intracellular accumulation at 50 uM after 180 mins; details: human, caco-2, 3 h
[19] = Apparent permeability from apical to basolateral side of human Caco-2 cells at 50 uM after 90 mins
[20] = Drug level in Caco-2 cells assessed as total recovery rate at 50 uM after 90 mins; details: human, read-out: Drug uptake
[21] = Drug level in Caco-2 cells assessed as total recovery rate at 50 uM after 30 mins; details: human, read-out: Drug uptake
[22] = Drug level in Caco-2 cells assessed as total recovery rate at 50 uM after 180 mins; details: human, read-out: Drug uptake
[23] = Apparent permeability from basolateral to apical side of human Caco-2 cells at 100 uM after 90 mins

| Compound | Drug uptake (Caco-2 [1]) | recovery at 1 h, 50 µM [2] | Papp B→A at 1.5 h, 50 µM [3] | Drug uptake (Caco-2 [4]) | Drug uptake (Caco-2 [5]) | Ratio (Caco-2 [6]) | Papp B→A at 1.5 h, 30 µM [8] | Drug uptake (Caco-2 [10]) | Papp A→B at 1.5 h, 100 µM [11] | recovery at 2 h, 50 µM [12] | Ratio (Caco-2 [13]) | Papp A→B at 1.5 h, 30 µM [14] | recovery at 2.5 h, 50 µM [15] | Ratio (Caco-2 [16]) | Drug uptake (Caco-2 [17]) | Drug uptake (Caco-2 [18]) | Papp A→B at 1.5 h, 50 µM [19] | recovery at 1.5 h, 50 µM [20] | recovery at 0.5 h, 50 µM [21] | recovery at 3 h, 50 µM [22] | further results |
| --- | --- | --- | --- | --- | --- | --- | --- | --- | --- | --- | --- | --- | --- | --- | --- | --- | --- | --- | --- | --- | --- |
| Cc1cc(=O)c2c(O)cc(O[C@@H]3O[C@H](COC(=O)C4=CC[C@H](C(C)(C)O)CC4)[C@@H](O)[C@H](O)[C@H]3O)cc2o1 [CYPELLOCARPA C] | 0.83% | 53.1% | 3.32 ×10⁻⁶ cm/s | 0.69% | 1.42% | 1.8 | 2.66 ×10⁻⁶ cm/s | 0.81% | 4.82 ×10⁻⁶ cm/s | 52.7% | 1.81 | 7.4 ×10⁻⁶ cm/s | 54.6% | 2.74 | 0.81% | 0.89% | 5.99 ×10⁻⁶ cm/s | 52.8% | 56.8% | 52.5% | Papp B→A at 50 µM [7]: 2.46 ×10⁻⁶ cm/s; Papp A→B at 50 µM [9]: 0.897 ×10⁻⁶ cm/s; Papp B→A at 1.5 h, 100 µM [23]: 2.71 ×10⁻⁶ cm/s |
| CC(C)C[C@@H](c1c(O)c(C=O)c(O)c(C=O)c1O)[C@@]1(C)CC[C@@H]2[C@@H]1[C@H]1[C@@H](CC[C@@]2(C)O)C1(C)C [MACROCARPAL A] | 40.79% | 63.1% | 1.68 ×10⁻⁶ cm/s | 50.42% | 36.8% | 0.98 | 1.63 ×10⁻⁶ cm/s | 50.57% | 1.8 ×10⁻⁶ cm/s | 69.8% | 1.27 | 1.66 ×10⁻⁶ cm/s | 68.5% | 1.02 | 44.21% | 56.67% | 1.64 ×10⁻⁶ cm/s | 60.8% | 76.4% | 75.7% | Papp B→A at 1.5 h, 100 µM [23]: 1.42 ×10⁻⁶ cm/s |
| CC(C)C[C@H](c1c(O)c(C=O)c(O)c(C=O)c1O)[C@@]1(C)CC[C@@H]2[C@@H]1[C@H]1[C@@H](CC[C@@]2(C)O)C1(C)C [MACROCARPAL B] | 50.56% | 56.6% | 2 ×10⁻⁶ cm/s | 63.25% | 41.19% | 0.85 | 1.84 ×10⁻⁶ cm/s | 53.21% | 1.64 ×10⁻⁶ cm/s | 68.7% | 0.77 | 2.29 ×10⁻⁶ cm/s | 59.5% | 1.25 | 46.98% | 49.26% | 1.71 ×10⁻⁶ cm/s | 64.7% | 50% | 55.5% | Papp B→A at 1.5 h, 100 µM [23]: 2.14 ×10⁻⁶ cm/s |

— ChEMBL document CHEMBL1138427, “Intestinal permeability of antivirus constituents from the fruits of Eucalyptus globulus Labill. in Caco-2 Cell Model” (Bioorg Med Chem Lett, 2007)
